Measured values taken from the supplement of paper PMC9938120.

Legend:
Assay in all cases: drug sensitivity score (DSS3, normalised partial AUC of % inhibition dose-response) (DSS (score)); higher = more sensitive (stronger inhibition of viability); extreme values may be limits of the assay
[1] = system: FMOC24 (patient-derived high-grade serous ovarian cancer cells); conditions: 72 h; library: FO5A; assay format: 2D, 384-well, CellTiter-Glo
Summary of the method: (§1)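 Patient-derived ovarian cancer cells (early passage, under 10) were dispensed onto 384-well flat clear-bottom plates pre-plated with compounds at five concentrations covering a 10,000-fold range. Plates were incubated 72 h at 37 °C, 5% CO2, and viability was read with CellTiter-Glo. Data were processed in Breeze. The drug sensitivity score (DSS3) is a partial area under the percent-inhibition dose-response curve, divided by the log of the upper asymptote; higher means more sensitive.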

[2] = system: FMOC09 (patient-derived high-grade serous ovarian cancer cells); conditions: 72 h; library: FO5A; assay format: 2D, 384-well, CellTiter-Glo
Summary of the method: as §1

[3] = system: FMOC14 (patient-derived high-grade serous ovarian cancer cells); conditions: 72 h; library: FO5A; assay format: 2D, 384-well, CellTiter-Glo
Summary of the method: as §1

[4] = system: FMOC22 (patient-derived mucinous ovarian cancer cells); conditions: 72 h; library: FO5A; assay format: 2D, 384-well, CellTiter-Glo
Summary of the method: as §1

[5] = system: FMOC02_3 (patient-derived low-grade serous ovarian cancer cells); conditions: 72 h; library: FO5A; assay format: 2D, 384-well, CellTiter-Glo
Summary of the method: as §1

[6] = system: FMOC03 (patient-derived mucinous ovarian cancer cells); conditions: 72 h; library: FO5A; assay format: 2D, 384-well, CellTiter-Glo
Summary of the method: as §1

[7] = system: FMOC25_1 (patient-derived low-grade serous ovarian cancer cells); conditions: 72 h; library: FO4B; assay format: 2D, 384-well, CellTiter-Glo
Summary of the method: as §1

[8] = system: FMOC25_2 (patient-derived low-grade serous ovarian cancer cells); conditions: 72 h; library: FO5A; assay format: 2D, 384-well, CellTiter-Glo
Summary of the method: as §1

[9] = system: FMOC06 (patient-derived mucinous ovarian cancer cells); conditions: 72 h; library: FO5A; assay format: 2D, 384-well, CellTiter-Glo
Summary of the method: as §1

[10] = system: FMOC02_2 (patient-derived low-grade serous ovarian cancer cells); conditions: 72 h; library: FO5A; assay format: 2D, 384-well, CellTiter-Glo
Summary of the method: as §1

| SMILES | drug sensitivity score [1] | drug sensitivity score [2] | drug sensitivity score [3] | drug sensitivity score [4] | drug sensitivity score [5] | drug sensitivity score [6] | drug sensitivity score [7] | drug sensitivity score [8] | drug sensitivity score [9] | drug sensitivity score [10] |
| --- | --- | --- | --- | --- | --- | --- | --- | --- | --- | --- |
| C=CC(=O)Nc1cccc(Nc2nc(Nc3ccc(N4CCN(C(C)=O)CC4)cc3OC)ncc2C(F)(F)F)c1 [Rociletinib] | 2.45 | 8.4 | 5.2 | 5.2 | 11.7 | 8.7 | 9.2 | 9.4 | 6.7 | 12.4 |
| C[C@@H](Oc1cc(-n2cnc3ccc(CN4CCN(C)CC4)cc32)sc1C(N)=O)c1ccccc1C(F)(F)F | 6.1 | 12.6 | 3.9 | 11.5 | 9.1 | 7.3 | 7.4 | 11.9 | 5.3 | 8.2 |
| CC(C)C[C@@H](C(=O)N[C@H](C(=O)OC1CCCC1)c1ccccc1)[C@H](O)C(=O)NO [Tosedostat] | 19.7 | 6.6 | 5.3 | 1.8 | 11 | 7.6 | 6.2 | 4.7 | 11.9 | 7.2 |
| CC(C)C[C@H](NC(=O)[C@H](Cc1ccccc1)NC(=O)c1cnccn1)B(O)O [Bortezomib] | 30.8 | 20.4 | 28.5 | 28.4 | 24.9 | 28.2 | 27.2 | 30.1 | 26.2 | 28.8 |
| Cc1nc(Nc2ncc(C(=O)Nc3c(C)cccc3Cl)s2)cc(N2CCN(CCO)CC2)n1 [Dasatinib] | 4.5 | 17.1 | 5.1 | 0 | 20.4 | 8.4 | 2.8 | 7.7 | 5 | 19.9 |
| S=c1[nH]cnc2nc[nH]c12 [Mercaptopurine] | 0.85 | 0 | 0 | 0 | 0 | 0 | 1.6 | 1.8 | 0.3 | 0.2 |
| CO[C@@H]1[C@H](N(C)C(=O)c2ccccc2)C[C@H]2O[C@]1(C)n1c3ccccc3c3c4c(c5c6ccccc6n2c5c31)C(=O)NC4 [Midostaurin] | 9.3 | 10.6 | 3 | 4.5 | 16.9 | 5 | 14.5 | 21.2 | 9.1 | 21.7 |
| CC(C)Nc1cc(-c2c[nH]c(C(=O)N[C@H](CO)c3cccc(Cl)c3)c2)c(Cl)cn1 [Ulixertinib] | 0.05 | 6.7 | 0.6 | 7.5 | 13.1 | 10 | 12.3 | 10.6 | 11.4 | 10.6 |
| Cn1cc(C2=Nc3cc(NC(=O)C(N)C4CCCCC4)cc4c3C2=CNNC4=O)cn1 (stereo not given) | 10.1 | 7.6 | 6.8 | 8.3 | 9.9 | 4.3 | 11.7 | 10.9 | 3 | 7.3 |
| CC1(C)CCC(c2ccc(Cl)cc2)=C(CN2CCN(c3ccc(C(=O)NS(=O)(=O)c4ccc(N[C@H](CCN5CCOCC5)CSc5ccccc5)c(S(=O)(=O)C(F)(F)F)c4)cc3)CC2)C1 [Navitoclax] | 21.1 | 0 | 7.3 | 4.8 | 21.9 | 6.9 | 14.7 | 23.2 | 6.6 | 21.7 |
| C[C@@H]1COC(Nc2ccc3ncnc(Nc4ccc(OCc5nccs5)c(Cl)c4)c3c2)=N1 [Varlitinib] | 0.5 | 6.5 | 0.5 | 0.1 | 6.3 | 9 | 8.3 | 5.1 | 0.3 | 12.5 |
| CC[C@]1(O)C[C@H]2CN(CCc3c([nH]c4ccccc34)[C@@](C(=O)OC)(c3cc4c(cc3OC)N(C=O)[C@H]3[C@@](O)(C(=O)OC)[C@H](OC(C)=O)[C@]5(CC)C=CCN6CC[C@]43[C@@H]65)C2)C1 [Vincristine] | 5.05 | 12.5 | 0.3 | 5.9 | 15.4 | 6.2 | 9.4 | 13 | 3.4 | 4.7 |
| CC[C@@H]1C(=O)N(C)c2cnc(Nc3ccc(C(=O)NC4CCN(C)CC4)cc3OC)nc2N1C1CCCC1 [BI 2536] | 2.25 | 9.1 | 0.4 | 5.1 | 9.3 | 5.2 | 5.8 | 7.3 | 2.1 | 6.7 |
| CN(C)Cc1ccc(S(=O)(=O)n2ccc(/C=C/C(=O)NO)c2)cc1 [Resminostat] | 6.3 | 3.3 | 8.2 | 6.8 | 7.4 | 8.1 | 3.4 | 7.7 | 6.8 | 9.7 |
| O=C(NOC[C@H](O)CO)c1ccc(F)c(F)c1Nc1ccc(I)cc1F | 0.2 | 8 | 0.2 | 7.5 | 7 | 11.5 | 7 | 5.2 | 11.3 | 10.4 |
| O=C(Nc1ccncc1)C(=O)c1cn(Cc2ccc(Cl)cc2)c2ccccc12 [Indibulin] | 6 | 4.7 | 0 | 3.4 | 9.6 | 4.3 | 5.5 | 9.2 | 1.3 | 10.9 |
